Our source for the IC50 and Activity values is ChEMBL document CHEMBL1158366, “Gallium(III) complexes of 2-pyridineformamide thiosemicarbazones: cytotoxic activity against malignant glioblastoma” (Eur J Med Chem, 2009).

Activity calls are given as the source filed them. The rule behind the calls is not given here. Some results are limits rather than exact numbers.

As a reminder, the IC50 is the point on the concentration scale where inhibition reaches its midpoint.

A short description of series [1]: Toxicity in human RBC membrane assessed as hemolysis after 1 hr by spectrophotometry. It is filed as cell-based, Erythrocyte. The following applies: red blood cells (RBC membrane).
Series [2] is described as follows: Cytotoxicity against rat RT2 cells expressing wild type p53 protein after 48 hrs by MTT assay. It is filed as functional, cell-based. The following applies: RT2, 48 h. Background: Formazan colour is commonly taken as a measure of viable cells.
Series [3] is described as follows: Cytotoxicity against human T98 cells expressing mutant p53 protein after 48 hrs by MTT assay. It is filed as functional, cell-based. The following applies: T98, 48 h.
In series [4] the test system is RT2. Kind of series: Induction of apoptosis in rat RT2 cells expressing wild type p53 protein assessed as cell membrane morphological changes at 100 uM after 48 hrs by phase contrast microscopy. It is filed as functional, cell-based.
Series [5] concerns T98. Kind of series: Induction of apoptosis in human T98 cells expressing mutant p53 protein assessed as cell membrane morphological changes at 100 uM after 48 hrs by phase contrast microscopy. It is filed as functional, cell-based.
The subject of series [6] is RT2. Kind of series: Induction of apoptosis in rat RT2 cells expressing wild type p53 protein assessed as DNA fragmentation at 100 uM after 48 hrs using DAPI staining by UV/fluorescence microscopy. It is filed as functional, cell-based.
Series [7] has as its system T98. Description: Induction of apoptosis in human T98 cells expressing mutant p53 protein assessed as DNA fragmentation at 100 uM after 48 hrs using DAPI staining by UV/fluorescence microscopy. It is filed as functional, cell-based.

Consider `CCNC(=S)N/N=C(\N)c1ccccn1`, for which the concentration for half-maximal inhibition (IC50) at 1 hr in series [1] is more than 1000 µM. The results for the 50% inhibitory concentration (IC50) in series [2] and in series [3] were 359 µM and 143 µM, respectively.
For `CNC(=S)N/N=C(\N)c1ccccn1`, the result in series [4], in series [5], in series [6] and in series [7] was Active. The IC50 at 1 hr in series [1] is more than 1000 µM. The IC50 in series [2] turned out to be 12.2 µM; in series [3], 32 µM.
For `NC(=S)N/N=C(\N)c1ccccn1`, the concentration for half-maximal inhibition (IC50) at 1 hr in series [1] was more than 1000 µM. The half-maximal inhibitory concentration (IC50) was found to be 7.28 µM in series [2] and 3.6 µM in series [3].
